{"source": "patent US7915251B2", "about": "“Alpha-helix mimetics and methods relating to the treatment of fibrosis” (Institute for Chemical Genomics, priority 2005, dated 2011)", "key": {"E-Cadherin": {"tested_on": "E-Cadherin", "experiment": "E-Cadherin expression in IPF patient fibroblasts (Western blot on whole cell lysates)", "format": "cell-based, human", "conditions": "RPMI 1640+10% FBS, 2 days", "method": "(§1) Western blots for S100A4 (also know as FSP-1 or fibroblast specific protein-1) and E-Cadherin were performed on whole cell lysates."}, "S100A4 [1]": {"tested_on": "S100A4", "experiment": "S100A4 expression in IPF patient fibroblasts (Western blot on whole cell lysates)", "format": "cell-based, human", "method": "as §1"}, "[2]": {"target": "β-catenin/CBP interaction (Homo sapiens, UniProt Q92793)", "sequence (Q92793 whole entry)": "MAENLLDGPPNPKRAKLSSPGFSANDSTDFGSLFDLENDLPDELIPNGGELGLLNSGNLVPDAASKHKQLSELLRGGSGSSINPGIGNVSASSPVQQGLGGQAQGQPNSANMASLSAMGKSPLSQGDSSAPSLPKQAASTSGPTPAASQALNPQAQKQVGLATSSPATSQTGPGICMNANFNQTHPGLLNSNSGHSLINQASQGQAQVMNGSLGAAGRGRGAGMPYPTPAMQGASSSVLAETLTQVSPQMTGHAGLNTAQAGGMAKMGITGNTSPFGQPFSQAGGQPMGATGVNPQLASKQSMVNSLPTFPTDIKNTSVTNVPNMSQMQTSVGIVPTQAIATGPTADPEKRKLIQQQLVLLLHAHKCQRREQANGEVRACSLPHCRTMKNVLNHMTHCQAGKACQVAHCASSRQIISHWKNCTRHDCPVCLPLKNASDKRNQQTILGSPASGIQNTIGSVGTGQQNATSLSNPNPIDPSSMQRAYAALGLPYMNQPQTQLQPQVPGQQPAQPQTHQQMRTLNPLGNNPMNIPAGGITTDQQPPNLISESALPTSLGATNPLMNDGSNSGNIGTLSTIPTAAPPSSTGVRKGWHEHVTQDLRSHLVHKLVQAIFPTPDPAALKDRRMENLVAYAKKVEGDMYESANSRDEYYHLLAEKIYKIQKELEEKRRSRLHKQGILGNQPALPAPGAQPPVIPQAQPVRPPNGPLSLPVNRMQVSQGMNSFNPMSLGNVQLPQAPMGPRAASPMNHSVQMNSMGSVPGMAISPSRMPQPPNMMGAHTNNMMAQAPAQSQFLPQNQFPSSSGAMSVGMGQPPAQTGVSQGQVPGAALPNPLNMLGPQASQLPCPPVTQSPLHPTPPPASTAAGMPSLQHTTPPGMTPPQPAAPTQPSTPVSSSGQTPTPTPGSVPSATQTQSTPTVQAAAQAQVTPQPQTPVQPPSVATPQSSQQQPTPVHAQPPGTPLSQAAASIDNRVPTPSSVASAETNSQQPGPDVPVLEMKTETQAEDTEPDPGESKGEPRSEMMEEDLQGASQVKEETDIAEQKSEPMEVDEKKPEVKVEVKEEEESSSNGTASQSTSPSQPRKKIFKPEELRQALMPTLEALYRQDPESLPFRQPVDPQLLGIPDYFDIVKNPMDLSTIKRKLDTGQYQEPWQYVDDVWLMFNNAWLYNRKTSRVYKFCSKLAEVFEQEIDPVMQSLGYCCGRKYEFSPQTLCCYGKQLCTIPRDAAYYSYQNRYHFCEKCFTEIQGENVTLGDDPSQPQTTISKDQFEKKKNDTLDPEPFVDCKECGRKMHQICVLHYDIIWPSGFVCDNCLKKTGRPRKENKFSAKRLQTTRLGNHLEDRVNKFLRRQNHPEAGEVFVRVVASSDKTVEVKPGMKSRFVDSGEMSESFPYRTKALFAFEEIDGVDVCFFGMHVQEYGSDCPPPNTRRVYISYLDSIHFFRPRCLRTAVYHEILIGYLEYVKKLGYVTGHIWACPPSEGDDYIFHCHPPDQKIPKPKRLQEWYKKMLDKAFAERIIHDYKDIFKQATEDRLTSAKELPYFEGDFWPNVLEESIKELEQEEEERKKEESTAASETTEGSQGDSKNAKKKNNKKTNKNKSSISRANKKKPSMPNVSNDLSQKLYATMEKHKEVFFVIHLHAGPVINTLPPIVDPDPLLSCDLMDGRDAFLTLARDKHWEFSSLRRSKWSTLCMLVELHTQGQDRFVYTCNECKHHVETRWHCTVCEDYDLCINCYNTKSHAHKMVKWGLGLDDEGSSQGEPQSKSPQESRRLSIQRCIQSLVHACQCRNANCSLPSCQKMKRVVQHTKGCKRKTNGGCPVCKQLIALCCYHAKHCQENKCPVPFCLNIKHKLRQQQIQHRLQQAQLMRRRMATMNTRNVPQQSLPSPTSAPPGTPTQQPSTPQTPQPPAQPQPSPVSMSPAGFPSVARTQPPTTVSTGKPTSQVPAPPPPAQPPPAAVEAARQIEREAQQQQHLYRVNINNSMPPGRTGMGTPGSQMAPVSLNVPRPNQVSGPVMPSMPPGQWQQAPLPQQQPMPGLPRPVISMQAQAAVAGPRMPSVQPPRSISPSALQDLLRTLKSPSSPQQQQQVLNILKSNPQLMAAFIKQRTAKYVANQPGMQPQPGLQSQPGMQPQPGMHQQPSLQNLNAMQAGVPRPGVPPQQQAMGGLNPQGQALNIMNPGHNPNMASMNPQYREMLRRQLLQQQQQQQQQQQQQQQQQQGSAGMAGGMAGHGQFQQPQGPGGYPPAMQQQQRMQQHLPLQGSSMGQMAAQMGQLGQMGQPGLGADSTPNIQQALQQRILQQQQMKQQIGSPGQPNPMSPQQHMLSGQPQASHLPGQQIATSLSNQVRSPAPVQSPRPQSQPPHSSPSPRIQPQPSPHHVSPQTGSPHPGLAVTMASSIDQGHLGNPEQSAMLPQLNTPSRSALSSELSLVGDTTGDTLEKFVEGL", "conditions": "cited from earlier work"}, "S100A4 [3]": {"tested_on": "S100A4", "experiment": "RT-PCR for S100A4 in bleomycin treated mice", "format": "in vivo", "conditions": "ICG-001 5 mgs/Kg/day s.c."}, "[4]": {"tested_on": "C57/B16 mice treated with intratracheal bleomeycin", "experiment": "Bleomycin induced murine pulmonary fibrosis model (lung sections, trichrome stain, body weight, survival)", "format": "in vivo", "method": "Murine models of bleomycin induced fibrosis have been developed in order to study fibrotic disease progression.\nThere is an absence of airway epithelium in lower left compared to upper left (see arrow heads) and extensive collagen deposition (lower left). On the sixth day, either saline (upper right) or ICG-001 (5 mgs/Kg/day) was administered for 10 days after which the mice were sacrificed and sectioned. Of interest is the upper right (saline treatment) showing lack of normal airway epithelialization, extensive collagen deposition and intra-airway hypercellularity (fibroblasts and inflammatory influx)."}, "collagen 1A2": {"tested_on": "collagen 1A2", "experiment": "RT-PCR for collagen 1A2 in bleomycin treated mice", "format": "in vivo", "conditions": "ICG-001 5 mgs/Kg/day s.c."}, "[5]": {"conditions": "bleomycin 5 days, then ICG-001 5 mgs/Kg/day for 10 days from the sixth day"}, "[6]": {"conditions": "bleomycin 5 days, then ICG-001 5 mgs/Kg/day for 10 days, untreated controls did not"}}}
{"smiles": "O=C1[C@H](Cc2ccc(O)cc2)N2C(=O)CCN(C(=O)NCc3ccccc3)[C@H]2CN1Cc1cccc2ccccc12", "note": "[ICG-001]", "values": [{"measurement": "E-cadherin expression (Western blot)", "setting": "E-Cadherin", "value": "increased"}, {"measurement": "S100A4 expression at the mRNA level", "setting": "S100A4 [1]", "value": "this is also true at the mRNA level"}, {"measurement": "S100A4 expression (Western blot)", "setting": "S100A4 [1]; RPMI 1640+10% FBS, 2 days", "value": "decreased"}, {"measurement": "effect on β-catenin/CBP interaction", "setting": "[2]", "value": "selectively blocks"}, {"measurement": "S100A4 message (RT-PCR)", "setting": "S100A4 [3]", "value": "reduced essentially to negative control"}, {"measurement": "airway appearance in lung sections", "setting": "[4]; [5]", "value": "essentially normal"}, {"measurement": "collagen levels (trichrome stain)", "setting": "[4]; [5]", "value": "normal collagen levels"}, {"measurement": "body weight", "setting": "[4]; [6]", "value": "regained normal body weight"}, {"measurement": "survival", "setting": "[4]; [6]", "value": "survived"}, {"measurement": "disease progression, as judged by reduced mortality, histopathology and endogenous gene expression", "setting": "[4]; murine bleomycin model of pulmonary fibrosis, 5 mg/Kg/day", "value": "not only halts but reverses disease progression"}, {"measurement": "collagen 1A2 message (RT-PCR)", "setting": "collagen 1A2", "value": "reduced essentially to negative control"}]}
